Data reported in US20250206760A1, “NITROGEN-CONTAINING HETEROCYCLIC COMPOUND, PREPARATION METHOD THEREFOR, AND PHARMACEUTICAL APPLICATION THEREOF” (Jiangsu Hengrui Pharmaceuticals Co., Ltd., priority 2022, published 2025).

Assays:
[1] = in vivo; parameters: species or system SD rats; details: both sexes, SD, rat, po, 50 mg/kg
Experimental: SD rats were used as test animals. After intragastric (i.g.) administration of example compounds to SD rats, the plasma concentrations at different time points were measured by the LC/MS/MS method. The pharmacokinetic behavior of the compound of the present disclosure in SD rats was studied, and its pharmacokinetic profiles were evaluated.
Four SD rats, of which half were male and half female, were provided by Vital River Laboratory Animal Technology Co., Ltd. The animals were fasted overnight and then intragastrically dosed.
A certain amount of example compound was weighed out and dissolved in 5% DMSO+20% PEG400+70% (10% TPGS)+5% (1% HPMC K100LV) to prepare a 5 mg/mL colorless clear solution.
The dose administered was 50 mg/kg, and the volume was 10.0 mL/kg.
(§1) 0.2-mL blood samples were collected from the orbit before administration and 0.25 h, 0.5 h, 1.0 h, 2.0 h, 4.0 h, 6.0 h, 8.0 h, 11.0 h, and 24.0 h after administration. The blood samples were placed into EDTA-K2 anticoagulation test tubes and centrifuged at 10,000 rpm for 1 min (4° C.), and plasma was separated within 1 h and stored in dry ice before analysis. The procedure starting from the blood collection to the centrifugation was performed under ice-bath conditions. Access to food was given 2 hours after administration.
After administration of different concentrations of the test compounds, the plasma concentration of the test compound in SD rats was determined: plasma samples (50 μL) were collected from the SD rats at various time points after administration, and 25 μL of camptothecin (1 μg/mL) and 450 μL of acetonitrile were added to each of the samples. The mixtures were vortexed and centrifuged at 3700 rpm for 10 min. 0.1 μL of the supernatant was taken for LC/MS/MS analysis.

[2] = test system: HER2 A775_G776insYVMA mutant Ba/F3; test: Ba/F3 cell proliferation assay, HER2 A775_G776insYVMA mutant; format: cell-based; details: Mus musculus, BaF3, 72 h, Celltiter-Glo cell viability; for GI50: read-out: HER2 A775_G776 ins YVMA/BaF3 GI50; for Emax: read-out: HER2 A775_G776 ins YVMA/BaF3 Imax %
Experimental: (§2) EGFR wild-type Ba/F3 cells (Cobioer, Cat. No. CBP73110) in the logarithmic growth phase were seeded into a 96-well plate at 2.5×10^3 cells/[…] in a growth medium, and HER2 wild-type Ba/F3 cells (Cobioer, Cat. No. CBP73110) or HER2 A775_G776insYVMA mutant Ba/F3 (Cobioer, Cat. No. CBP73184) in the logarithmic growth phase were seeded into a 96-well plate at 5×10^3 cells/100 μL in a growth medium.
(§3) The plates were placed in a cell incubator at 37° C. overnight. The compound diluted in 3-fold gradient with a medium was added to the plates at 100 μL/well the next day. All treatments were performed in triplicate. The plates were cultured in the cell incubator at 37° C. for another 72 h. Celltiter-Glo Luminescent cell viability assay was performed.
(§4) The cell proliferation rate corresponding to each well was calculated according to the following formula: proliferation %=(test compound well G3-GO average value)/(DMSO control well G3 average value -GO average value)×100. According to the corresponding proliferation rate and concentration of each gradient concentration well, a gradient curve of cell proliferation was fitted using Prism Graphpad software, and GI50 (GI50 is defined as the concentration of a compound corresponding to the cell proliferation inhibition rate of 50%) of the compound was calculated.

[3] = in vivo; parameters: species or system C57 mice; details: female, C57, mouse, po, 50 mg/kg
Experimental: C57 mice were used as test animals. After intragastric (i.g.) administration of example compounds to C57 mice, the plasma concentrations at different time points were measured by the LC/MS/MS method. The pharmacokinetic behavior of the compounds of the present disclosure in C57 mice was studied and their pharmacokinetic profiles were evaluated.
Twenty-seven C57 mice, female, were evenly divided into 3 groups, provided by Beijing HFK Bioscience Co., Ltd., and intragastrically administered.
A certain amount of example compound was weighed out and dissolved in 5% DMSO+20% PEG400+70% (10% TPGS)+5% (1% HPMC K100LV) to prepare a 2.5 mg/mL colorless clear solution.
The dose administered was 50 mg/kg, and the volume was 20.0 mL/kg.
as §1, with “0.1-mL blood” for “0.2-mL blood”, “for 2” for “for 1”, “stored at −20° C.” for “stored in dry ice”
After administration of different concentrations of the test compounds, the plasma concentrations of the test compounds in C57 mice were determined: plasma samples (50 μL) were collected from the C57 mice at various time points after administration, and 25 μL of labetalol (1 μg/mL) and 450 μL of acetonitrile were added to each of the samples.
The mixtures were vortexed and centrifuged at 3700 rpm for 10 min. 0.1 μL of the supernatant was taken for LC/MS/MS analysis.

[4] = test system: HER2 wild-type Ba/F3 cells; test: Ba/F3 cell proliferation assay, HER2 wild-type; format: cell-based; details: Mus musculus, BaF3, 72 h, Celltiter-Glo cell viability; for GI50: read-out: HER2 WT/BaF3 GI50; for Emax: read-out: HER2 WT/BaF3 Imax %
Experimental: as §2, §3, §4

[5] = test system: EGFR wild-type Ba/F3 cells; test: Ba/F3 cell proliferation assay, EGFR wild-type; format: cell-based; details: 72 h, Celltiter-Glo cell viability; for GI50: Mus musculus, BaF3, read-out: EGFR WT/BaF3 GI50
Experimental: as §2, §3, §4

Structure (SMILES) | AUC(0-t) [1] | CL/F [1] | Cmax [1] | Vd/F [1] | half-life [1] | GI50 [2] | Emax [2] | AUC(0-t) [3] | CL/F [3] | Cmax [3] | Vd/F [3] | half-life [3] | GI50 [4] | Emax [4] | EGFR WT/BaF3 Imax % [5] | GI50 [5]
C=CC(=O)N1[C@@H]2CC[C@H]1C[C@@H](Oc1ccc3ncnc(Nc4ccc(Oc5ccn6ncnc6c5)c(C)c4F)c3c1)C2 [Example 10, 1-(endo-3-((4-((4-([1,2,4]Triazolo[1,5-a]pyridin-7-yloxy)-2-fluoro-3-methylphenyl)amino)quinazolin-6-yl)oxy)-8-azabicyclo[3.2.1]octan-8-yl)prop-2-en-1-one] | 70.8 µg·h/mL | 0.882 L/h/kg | 19.3 µg/mL | 2.95 L/kg | 2.3 h | 0.0103 µM | 100% | 31.2 µg·h/mL | 1.59 L/h/kg | 14 µg/mL | 3.75 L/kg | 1.6 h | 0.0093 µM | 100% | 100% | 2.84 µM
C=CC(=O)N1[C@@H]2CC[C@H]1C[C@@H](Oc1ccc3ncnc(Nc4ccc(Oc5ccc6c(c5)ncn6C)c(C)c4F)c3c1)C2 [Example 18, 1-(endo-3-((4-((2-Fluoro-3-methyl-4-((1-methyl-1H-benzo[d]imidazol-5-yl)oxy)phenyl)amino)quinazolin-6-yl)oxy)-8-azabicyclo[3.2.1]octan-8-yl)prop-2-en-1-one] | – | – | – | – | – | 0.0236 µM | 100% | 44.9 µg·h/mL | 1.11 L/h/kg | 12.7 µg/mL | 3.93 L/kg | 2.5 h | 0.0177 µM | 100% | 100% | 2.13 µM
C=CC(=O)N1[C@@H]2CC[C@H]1C[C@H](Oc1cc3c(Nc4ccc(Oc5ccn6ncnc6c5)c(C)c4)ncnc3cn1)C2 [Example 26, 1-(exo-3-((4-((4-([1,2,4]Triazolo[1,5-a]pyridin-7-yloxy)-3-methylphenyl)amino)pyrido[3,4-d]pyrimidin-6-yl)oxy)-8-azabicyclo[3.2.1]octan-8-yl)prop-2-en-1-one] | – | – | – | – | – | 0.0234 µM | 100% | 32.1 µg·h/mL | 1.56 L/h/kg | 11.3 µg/mL | 2.88 L/kg | 1.3 h | 0.0092 µM | 100% | 100% | 1.63 µM
